According to PubChem BioAssay AID511:

Molecular target: Arf-GAP with GTPase, ANK repeat and PH domain-containing protein 2 (Homo sapiens) (UniProt Q99490)
Assay: ligand binding to human centaurin gamma 1 – biophysical, DSF, SYPRO orange, recombinant protein (AID 511)
Conditions: recombinant CENTG1, DSF SYPRO orange Tm shift; at 50000 µM; protein 4.5 µM; buffer 100 mM HEPES; pH 7.5; NaCl 150 mM; active compounds read high

Chain of Arf-GAP with GTPase, ANK repeat and PH domain-containing protein 2 (Homo sapiens) (Q99490 whole entry, looked up, the tested form may be a part): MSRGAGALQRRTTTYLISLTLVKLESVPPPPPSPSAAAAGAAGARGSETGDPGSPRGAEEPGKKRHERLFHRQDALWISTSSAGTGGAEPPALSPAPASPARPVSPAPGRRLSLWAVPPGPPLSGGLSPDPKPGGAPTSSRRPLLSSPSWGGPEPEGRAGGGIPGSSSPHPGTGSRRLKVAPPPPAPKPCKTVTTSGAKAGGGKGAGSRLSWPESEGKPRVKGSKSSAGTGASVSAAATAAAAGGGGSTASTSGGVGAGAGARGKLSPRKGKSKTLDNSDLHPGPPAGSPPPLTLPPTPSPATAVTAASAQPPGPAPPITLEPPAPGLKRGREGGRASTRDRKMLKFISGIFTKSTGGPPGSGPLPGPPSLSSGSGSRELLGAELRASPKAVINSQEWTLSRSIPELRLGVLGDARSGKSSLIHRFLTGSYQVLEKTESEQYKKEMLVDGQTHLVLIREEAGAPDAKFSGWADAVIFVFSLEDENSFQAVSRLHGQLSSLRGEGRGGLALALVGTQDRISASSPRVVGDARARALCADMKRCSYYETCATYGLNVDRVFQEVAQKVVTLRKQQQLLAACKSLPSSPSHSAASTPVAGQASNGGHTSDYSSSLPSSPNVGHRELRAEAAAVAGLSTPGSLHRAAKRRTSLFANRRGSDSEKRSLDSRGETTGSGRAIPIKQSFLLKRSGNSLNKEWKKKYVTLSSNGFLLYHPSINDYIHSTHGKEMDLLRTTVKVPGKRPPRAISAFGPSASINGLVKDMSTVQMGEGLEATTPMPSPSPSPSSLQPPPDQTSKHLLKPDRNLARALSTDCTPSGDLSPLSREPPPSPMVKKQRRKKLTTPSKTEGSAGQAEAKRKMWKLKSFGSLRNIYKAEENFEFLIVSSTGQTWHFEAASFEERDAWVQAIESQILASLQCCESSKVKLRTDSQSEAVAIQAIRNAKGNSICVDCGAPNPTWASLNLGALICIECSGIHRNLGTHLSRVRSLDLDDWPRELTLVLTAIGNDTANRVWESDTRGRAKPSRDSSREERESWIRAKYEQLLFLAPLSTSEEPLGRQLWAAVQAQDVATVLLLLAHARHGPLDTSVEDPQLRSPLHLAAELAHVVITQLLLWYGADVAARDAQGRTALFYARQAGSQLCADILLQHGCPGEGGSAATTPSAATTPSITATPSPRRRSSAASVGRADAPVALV

SMILES: NC(CS)C(=O)O (stereo unspecified)
- Tm shift: 3.9 Celsius
